Reference: article PMC10400630, “Resensitizing multidrug-resistant Gram-negative bacteria to carbapenems and colistin using disulfiram” (Communications Biology, 2023)
Positions of bridges follow the written chain, without caps; N, C: chain ends. Non-standard residues stand in square brackets, D forms with d. Residues, ends and D or L forms follow the SMILES beside them. *: point of attachment. Heptanoyl(5-Me) = CCC(C)CCCC(=O)*; Dab = NCC[C@H](N)C(=O)O

Tests used:
E. coli B2 [1] = system: T1, E. coli B2; test: microbe, parasite or virus in culture; parameters: checkerboard broth microdilution, antibiotic alone, absorbance at 600 nm; settings: antibiotic alone, without DSF; for MIC: Escherichia coli, B2
T1 construct: B2
Source text: (§1) The fractional inhibitory concentration index (FICI) value was used to evaluate the drug interaction of two compounds (A and B) and calculated as the sum of FICIA and FICIB. […] To validate the potentiation, we further evaluated these combinations on several types of Gram-negative bacteria, including drug-sensitive strains, MCR-producing Enterobacterales and MBL-positive Enterobacteriaceae.

E. coli ATCC 25922 = system: T2, E. coli ATCC 25922; test: microbe, parasite or virus in culture; parameters: broth microdilution MIC of antibiotic alone (checkerboard assay); settings: Escherichia coli, ATCC25922; colistin alone
T2 construct: ATCC 25922
Source text: as §1, with “Enterobacteriaceae. […] These NDM-positive Gram-negative pathogens carry blaNDM-1 or blaNDM-5 gene and are meropenem-resistant with MICs of 16-32 µg/mL. […] To explore the synergistic bactericidal activity of this combination, time-dependent killing curves for different MCR-positive Gram-negative bacteria were also determined.” for “Enterobacteriaceae.”

E. coli DH5α (PUC19) = system: T3, E. coli DH5α (PUC19); test: microbe, parasite or virus in culture; parameters: broth microdilution MIC of antibiotic alone (checkerboard assay); settings: Escherichia coli; colistin alone
T3 construct: DH5α (pUC19)
Source text: as §1, with “Enterobacteriaceae. […] These NDM-positive Gram-negative pathogens carry blaNDM-1 or blaNDM-5 gene and are meropenem-resistant with MICs of 16-32 µg/mL. […] To explore the synergistic bactericidal activity of this combination, time-dependent killing curves for different MCR-positive Gram-negative bacteria were also determined.” for “Enterobacteriaceae.”

E. coli G92 (mcr-1) = system: T4, E. coli G92 (mcr-1); test: microbe, parasite or virus in culture; parameters: broth microdilution MIC of antibiotic alone (checkerboard assay); settings: Escherichia coli; colistin alone
T4 construct: G92 (mcr-1)
Source text: as §1, with “Enterobacteriaceae. […] These NDM-positive Gram-negative pathogens carry blaNDM-1 or blaNDM-5 gene and are meropenem-resistant with MICs of 16-32 µg/mL. […] To explore the synergistic bactericidal activity of this combination, time-dependent killing curves for different MCR-positive Gram-negative bacteria were also determined.” for “Enterobacteriaceae.”

E. coli CP131 (mcr-3) = system: T5, E. coli CP131 (mcr-3); test: microbe, parasite or virus in culture; parameters: broth microdilution MIC of antibiotic alone (checkerboard assay); settings: Escherichia coli; colistin alone
T5 construct: CP131 (mcr-3)
Source text: as §1, with “Enterobacteriaceae. […] These NDM-positive Gram-negative pathogens carry blaNDM-1 or blaNDM-5 gene and are meropenem-resistant with MICs of 16-32 µg/mL. […] To explore the synergistic bactericidal activity of this combination, time-dependent killing curves for different MCR-positive Gram-negative bacteria were also determined.” for “Enterobacteriaceae.”

S. enterica ATCC 13076 = system: T6, S. enterica ATCC 13076; test: microbe, parasite or virus in culture; parameters: broth microdilution MIC of antibiotic alone (checkerboard assay); settings: Salmonella enterica, ATCC13076; colistin alone
T6 construct: ATCC 13076
Source text: as §1, with “Enterobacteriaceae. […] These NDM-positive Gram-negative pathogens carry blaNDM-1 or blaNDM-5 gene and are meropenem-resistant with MICs of 16-32 µg/mL. […] To explore the synergistic bactericidal activity of this combination, time-dependent killing curves for different MCR-positive Gram-negative bacteria were also determined.” for “Enterobacteriaceae.”

E. coli B2 [2] = system: T1, E. coli B2; test: microbe, parasite or virus in culture; parameters: broth microdilution MIC of antibiotic alone (checkerboard assay); settings: Escherichia coli, antibiotic alone
Source text: as §1, with “Enterobacteriaceae. […] These NDM-positive Gram-negative pathogens carry blaNDM-1 or blaNDM-5 gene and are meropenem-resistant with MICs of 16-32 µg/mL. […] To explore the synergistic bactericidal activity of this combination, time-dependent killing curves for different MCR-positive Gram-negative bacteria were also determined.” for “Enterobacteriaceae.”

[3] = system: T7, K. pneumoniae D120 (mcr-8); test: microbe, parasite or virus in culture; parameters: broth microdilution MIC of antibiotic alone (checkerboard assay); settings: Klebsiella pneumoniae; colistin alone
T7 construct: D120 (mcr-8)
Source text: as §1, with “Enterobacteriaceae. […] These NDM-positive Gram-negative pathogens carry blaNDM-1 or blaNDM-5 gene and are meropenem-resistant with MICs of 16-32 µg/mL. […] To explore the synergistic bactericidal activity of this combination, time-dependent killing curves for different MCR-positive Gram-negative bacteria were also determined.” for “Enterobacteriaceae.”

NDM-5 = biological target: T8, NDM-5 (Escherichia coli, UniProt G3K399); test: purified NDM-[…]) enzyme inhibition assay, absorbance at […] nm; format: biochemical
T8 construct: gene blaNDM-5

NDM-positive E. coli C3 = test: microbe, parasite or virus in culture; parameters: MIC of meropenem alone before serial passage (passage 0); settings: Escherichia coli, read-out: MICs of MEM, - DSF
Description: To learn more about whether the addition of DSF contributes to preventing the development of antibiotic resistance, we carried out the serial passage assays in an NDM- or MCR-positive bacteria after exposure to meropenem/colistin, DSF and their combination. […] The mutation prevention index (MPI) was determined via the equation of MPC/MIC, which represents the opening of the mutant selection window (MSW, concentration range between MIC and MPC). When the MSW is narrower, drug-resistant strains are less likely to develop.

T8 sequence (G3K399 29-270 limits assumed): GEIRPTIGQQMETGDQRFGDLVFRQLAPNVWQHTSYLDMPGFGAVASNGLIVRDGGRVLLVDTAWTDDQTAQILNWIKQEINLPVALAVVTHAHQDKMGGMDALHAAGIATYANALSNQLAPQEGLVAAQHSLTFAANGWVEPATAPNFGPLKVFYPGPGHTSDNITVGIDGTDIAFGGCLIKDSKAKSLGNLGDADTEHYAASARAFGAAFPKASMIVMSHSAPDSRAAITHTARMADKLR

CN[C@H](CC(C)C)C(=O)N[C@H]1C(=O)N[C@@H](CC(N)=O)C(=O)N[C@H]2C(=O)N[C@H]3C(=O)N[C@H](C(=O)N[C@H](C(=O)O)c4cc(O)cc(O)c4-c4cc3ccc4O)[C@H](O)c3ccc(c(Cl)c3)Oc3cc2cc(c3O[C@@H]2O[C@H](CO)[C@@H](O)[C@H](O)[C@H]2O[C@H]2C[C@](C)(N)[C@H](O)[C@H](C)O2)Oc2ccc(cc2Cl)[C@H]1O [Vancomycin]
MIC (E. coli B2 [1]): 64 µg/mL

C[C@H]1c2cccc(O)c2C(=O)C2=C(O)[C@]3(O)C(=O)C(C(N)=O)=C(O)[C@@H](N(C)C)[C@@H]3[C@@H](O)[C@@H]21 [Doxycycline]
MIC (E. coli B2 [1]): 32 µg/mL

CCC(C)CCCC(=O)N[C@@H](CCN)C(=O)N[C@H](C(=O)N[C@@H](CCN)C(=O)N[C@H]1CCNC(=O)[C@H]([C@@H](C)O)NC(=O)[C@H](CCN)NC(=O)[C@H](CCN)NC(=O)[C@H](CC(C)C)NC(=O)[C@@H](CC(C)C)NC(=O)[C@H](CCN)NC1=O)[C@@H](C)O (stereo partly drawn) [Colistin] ({Heptanoyl(5-Me)}-[Dab]T[Dab][Dab][Dab][dL]L[Dab][Dab]T; lactam 4-C)
MIC (E. coli ATCC 25922): 0.5 µg/mL | MIC (E. coli DH5α (PUC19)): 0.25 µg/mL | MIC (E. coli G92 (mcr-1)): 4 µg/mL | MIC (E. coli CP131 (mcr-3)): 2 µg/mL | MIC (S. enterica ATCC 13076): 0.125 µg/mL | MIC (E. coli B2 [2]): 8 µg/mL | MIC [3]: 4 µg/mL

CN(C)c1cc(NC(=O)CNC(C)(C)C)c(O)c2c1C[C@H]1C[C@H]3[C@H](N(C)C)C(O)=C(C(N)=O)C(=O)[C@@]3(O)C(O)=C1C2=O [Tigecycline]
MIC (E. coli B2 [1]): 0.5 µg/mL

CCN(CC)C(=S)SSC(=S)N(CC)CC [disulfiram]
IC50 (NDM-5): 95.5 µM

C[C@@H](O)[C@H]1C(=O)N2C(C(=O)O)=C(S[C@@H]3CN[C@H](C(=O)N(C)C)C3)[C@H](C)[C@H]12 [Meropenem]
MIC (NDM-positive E. coli C3): 8 µg/mL | MIC (E. coli B2 [1]): 32 µg/mL

CO[C@H]1/C=C/O[C@@]2(C)Oc3c(C)c(O)c4c(O)c(c(/C=N/N5CCN(C)CC5)c(O)c4c3C2=O)NC(=O)/C(C)=C\C=C\[C@H](C)[C@H](O)[C@@H](C)[C@@H](O)[C@@H](C)[C@H](OC(C)=O)[C@@H]1C [Rifampicin]
MIC^a (E. coli B2 [1]): 128 µg/mL
